In US11590116B2 (THERAVANCE BIOPHARMA R&D IP, LLC, priority 2019, dated 2023):

Columns and labels:
[1] = target: T1, recombinant human ALK5 (TGF-βR1) protein (Homo sapiens, UniProt P36897); test: Biochemical ALK5 (TGF-βR1) assay to measure pKi (LANCE Ultra ULight kinase assay); conditions: apparent pKi from pIC50 by Cheng-Prusoff, read-out: ALK5 pKi (converted)
T1 construct: purchased Life Technologies PR9075A
T1 sequence (P36897 34-503): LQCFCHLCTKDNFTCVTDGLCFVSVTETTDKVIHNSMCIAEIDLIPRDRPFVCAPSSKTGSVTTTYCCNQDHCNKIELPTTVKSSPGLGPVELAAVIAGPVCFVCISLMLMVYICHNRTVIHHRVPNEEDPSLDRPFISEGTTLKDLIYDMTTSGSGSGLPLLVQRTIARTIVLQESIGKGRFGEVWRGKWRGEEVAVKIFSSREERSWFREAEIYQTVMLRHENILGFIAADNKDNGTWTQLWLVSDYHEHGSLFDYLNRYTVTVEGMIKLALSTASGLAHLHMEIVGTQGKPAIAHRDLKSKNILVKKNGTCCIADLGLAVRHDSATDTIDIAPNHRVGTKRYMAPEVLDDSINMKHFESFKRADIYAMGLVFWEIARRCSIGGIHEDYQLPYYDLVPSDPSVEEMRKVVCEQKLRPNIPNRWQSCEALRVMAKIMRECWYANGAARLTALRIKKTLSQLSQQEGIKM
Summary of the method: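 Compounds (10 μM to 25 pM) preincubated 60 minutes at room temperature with enzyme, then reaction run 60 minutes at 37° C with ATP added as 125 μM (5× final). Stopped with EDTA plus Eu-anti-phospho-Topoisomerase 2-alpha (Thr1342) antibody, TR-FRET read at 665 nm; pIC50 converted to pKi via Cheng-Prusoff.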

[2] = test system: TGF-β-stimulated SMAD3 phosphorylation in BEAS-2B cells; test: Cellular ALK5 potency assay, inhibition of TGF-β stimulated pSMAD3 formation in BEAS-2B cells; type: cell-based; conditions: Homo sapiens; inhibition of TGF-β stimulated pSMAD3 formation, BEAS-2B cells; read-out: BEAS2B pIC50 (converted)
Summary of the method: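 Potency is reported as pIC50, derived from concentration-dependent reduction of pSMAD3 AlphaLISA signal against TGF-β-stimulated cells without compound. BEAS-2B cells received compound for 1 h before a 30-min stimulation with 10 ng/mL TGF-β.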

| SMILES | Ki [1] | IC50 [2] |
| --- | --- | --- |
| COC(=O)N1CCc2nnc(-c3cnc4ccc(-c5c[nH]nc5-c5ccc(F)c(C)n5)nc4c3)cc2C1 [Compound 303, methyl 3-[6-[3-(5-fluoro-6-methyl-2-pyridyl)-1H-pyrazol-4-yl]-1,5-naphthyridin-3-yl]-7,8-dihydro-5H-pyrido[4,3-c]pyridazine-6-carboxylate] | 0.0398 to 0.316 nM | 25.1 to 158 nM |
| Cc1cccc(-c2[nH]cnc2-c2ccc3ncc(-c4ccnc(C(=O)OC5CCNCC5)c4)cc3c2)n1 [Compound 799, 4-piperidyl 4-[6-[5-(6-methyl-2-pyridyl)-1H-imidazol-4-yl]-3-quinolyl]pyridine-2-carboxylate] | 0.0398 to 0.316 nM | 200 to 1260 nM |
| CNCCn1cc(-c2cnc3ccc(-c4c(-c5cccc(C)n5)n[nH]c4N)nc3c2)cn1 [Compound 512, 4-[7-[1-[2-(methylamino)ethyl]pyrazol-4-yl]-1,5-naphthyridin-2-yl]-3-(6-methyl-2-pyridyl)-1H-pyrazol-5-amine] | 0.0398 to 0.316 nM | 200 to 1260 nM |
| Cc1cccc(-c2[nH]cnc2-c2ccc3ncc(-c4ccc(C(=O)O[C@@H]5CCN(C)C5)nc4)cc3c2)n1 [Compound 273, (R)-1-methylpyrrolidin-3-yl 5-(6-(5-(6-methylpyridin-2-yl)-1H-imidazol-4-yl)quinolin-3-yl)picolinate] | < 0.0316 nM | 25.1 to 158 nM |
| CNCCn1cc(-c2cnc3ccc(-c4c(-c5cccc(C)n5)nn5c4NCC5)cc3c2)cn1 [Compound 632, N-methyl-2-[4-[6-[6-(6-methyl-2-pyridyl)-2,3-dihydro-1H-imidazo[1,2-b]pyrazol-7-yl]-3-quinolyl]pyrazol-1-yl]ethanamine] | 0.0398 to 0.316 nM | 25.1 to 158 nM |
| Cc1cccc(-c2[nH]cnc2-c2ccc3ncc(-c4ccc(C(=O)OC[C@@H]5CCCN5)cn4)cc3c2)n1 [Compound 1163, [(2S)-pyrrolidin-2-yl]methyl 6-[6-[5-(6-methyl-2-pyridyl)-1H-imidazol-4-yl]-3-quinolyl]pyridine-3-carboxylate] | 0.0398 to 0.316 nM | 25.1 to 158 nM |
| Cc1cccc(-c2n[nH]cc2-c2ccc3nccc(NC(=O)CCN4CCOCC4)c3n2)n1 [Compound 841, N-[6-[3-(6-methyl-2-pyridyl)-1H-pyrazol-4-yl]-1,5-naphthyridin-4-yl]-3-morpholino-propanamide] | 0.398 to 3.16 nM | 25.1 to 158 nM |
| Cc1cccc(-c2[nH]cnc2-c2ccc3ncc(N4CC5(CCNCC5)C4)cc3c2)n1 [Compound 179, 3-(2,7-diazaspiro[3.5]nonan-2-yl)-6-[5-(6-methyl-2-pyridyl)-1H-imidazol-4-yl]quinoline] | 0.0398 to 0.316 nM | 25.1 to 158 nM |
| Cc1cccc(-c2[nH]ncc2-c2ccc3ncc(C(=O)O[C@H]4CC[C@@H](N)CC4)cc3c2)n1 [Compound 1228, (4-aminocyclohexyl) 6-[5-(6-methyl-2-pyridyl)-1H-pyrazol-4-yl]quinoline-3-carboxylate] | 0.0398 to 0.316 nM | 25.1 to 158 nM |
| Cc1cccc(-c2[nH]cnc2-c2ccc3ncc(NCCN4CCN[C@@H](CO)C4)cc3c2)n1 [Compound 708, [(2R)-4-[2-[[6-[5-(6-methyl-2-pyridyl)-1H-imidazol-4-yl]-3-quinolyl]amino]ethyl]piperazin-2-yl]methanol] | 0.0398 to 0.316 nM | 200 to 1260 nM |
| Cc1cccc(-c2[nH]cnc2-c2ccc3ncc(-c4csc(C(=O)OCCN5CCC[C@H](N)C5)c4)cc3c2)n1 [Compound 1250, 2-[(3S)-3-amino-1-piperidyl]ethyl 4-[6-[5-(6-methyl-2-pyridyl)-1H-imidazol-4-yl]-3-quinolyl]thiophene-2-carboxylate] | 0.398 to 3.16 nM | 25.1 to 158 nM |
| Cc1cccc(-c2[nH]cnc2-c2ccc3ncc(-c4ncc(C(=O)OC5CNC5)cn4)cc3c2)n1 [Compound 1063, azetidin-3-yl 2-[6-[5-(6-methyl-2-pyridyl)-1H-imidazol-4-yl]-3-quinolyl]pyrimidine-5-carboxylate] | 0.0398 to 0.316 nM | 25.1 to 158 nM |
| Cc1cccc(-c2[nH]cnc2-c2ccc3ncc(-c4cnc5c(c4)CCC5N)cc3c2)n1 (centres unmarked) [Compound 734, 3-[6-[5-(6-methyl-2-pyridyl)-1H-imidazol-4-yl]-3-quinolyl]-6,7-dihydro-5H-cyclopenta[b]pyridin-7-amine] | 0.0398 to 0.316 nM | 25.1 to 158 nM |
| Cc1nc(-c2n[nH]cc2-c2ccc3ncc(-c4cc5c(nn4)CCNC5)cc3n2)ccc1F [Compound 289, 3-[6-[3-(5-fluoro-6-methyl-2-pyridyl)-1H-pyrazol-4-yl]-1,5-naphthyridin-3-yl]-5,6,7,8-tetrahydropyrido[4,3-c]pyridazine] | 0.398 to 3.16 nM | 200 to 1260 nM |

Further lines, with some results ahead:

| Ki [1] | SMILES | IC50 [2] |
| --- | --- | --- |
| 0.0398 to 0.316 nM | Cc1cccc(-c2n[nH]cc2-c2ccc3ncc(N4CCNC[C@H]4C)cc3n2)n1 [Compound 271, 7-[(2R)-2-methylpiperazin-1-yl]-2-[3-(6-methyl-2-pyridyl)-1H-pyrazol-4-yl]-1,5-naphthyridine] | 25.1 to 158 nM |
| < 0.0316 nM | Cc1cccc(-c2n[nH]cc2-c2ccc3ncc(NCCN4CCCC4)cc3n2)n1 [Compound 597, 6-[3-(6-methyl-2-pyridyl)-1H-pyrazol-4-yl]-N-(2-pyrrolidin-1-ylethyl)-1,5-naphthyridin-3-amine] | 25.1 to 158 nM |
| < 0.0316 nM | Cc1cccc(-c2n[nH]cc2-c2ccc3ncc(NCCN4CCCC4(C)C)cc3n2)n1 [Compound 31, N-[2-(2,2-dimethylpyrrolidin-1-yl)ethyl]-6-[3-(6-methyl-2-pyridyl)-1H-pyrazol-4-yl]-1,5-naphthyridin-3-amine] | 25.1 to 158 nM |
| 0.0398 to 0.316 nM | Cc1nc(-c2n[nH]cc2-c2ccc3ncc(-c4ncc5n4CCN5)cc3n2)ccc1F [Compound 174, 7-(2,3-dihydro-1H-imidazo[1,2-c]imidazol-5-yl)-2-[3-(5-fluoro-6-methyl-2-pyridyl)-1H-pyrazol-4-yl]-1,5-naphthyridine] | 200 to 1260 nM |
| 0.398 to 3.16 nM | Cc1cccc(-c2n[nH]cc2-c2ccc3ncc(N4CC5CN(C(C)C)CC54)cc3n2)n1 (centres unmarked) [Compound 186, 7-(3-isopropyl-3,6-diazabicyclo[3.2.0]heptan-6-yl)-2-[3-(6-methyl-2-pyridyl)-1H-pyrazol-4-yl]-1,5-naphthyridine] | 25.1 to 158 nM |
| 0.0398 to 0.316 nM | Cc1cccc(-c2n[nH]cc2-c2ccc3ncc(-c4cnc(O)nc4)cc3n2)n1 [Compound 69, 5-[6-[3-(6-methyl-2-pyridyl)-1H-pyrazol-4-yl]-1,5-naphthyridin-3-yl]pyrimidin-2-ol] | 1580 to 10000 nM |
| 0.0398 to 0.316 nM | Cc1cccc(-c2n[nH]cc2-c2ccc3ncc(-c4cnn(CC(=O)N5CCNCC5)c4)cc3n2)n1 [Compound 295, 2-[4-[6-[3-(6-methyl-2-pyridyl)-1H-pyrazol-4-yl]-1,5-naphthyridin-3-yl]pyrazol-1-yl]-1-piperazin-1-yl-ethanone] | 200 to 1260 nM |
| 0.398 to 3.16 nM | Cc1cccc(-c2n[nH]cc2-c2ccc3nccc(CCCN4CCOCC4)c3n2)n1 [Compound 812, 4-[3-[6-[3-(6-methyl-2-pyridyl)-1H-pyrazol-4-yl]-1,5-naphthyridin-4-yl]propyl]morpholine] | 200 to 1260 nM |
| 0.0398 to 0.316 nM | Cc1cccc(-c2n[nH]cc2-c2ccc3nccc(N4CCNCC4)c3n2)n1 [Compound 856, 2-[3-(6-methyl-2-pyridyl)-1H-pyrazol-4-yl]-8-piperazin-1-yl-1,5-naphthyridine] | 25.1 to 158 nM |
| 0.0398 to 0.316 nM | Cc1cccc(-c2n[nH]cc2-c2ccc3ncc(-c4cncnc4)cc3n2)n1 [Compound 416, 2-[3-(6-methyl-2-pyridyl)-1H-pyrazol-4-yl]-7-pyrimidin-5-yl-1,5-naphthyridine] | < 20 nM |
| < 0.0316 nM | Cc1cccc(-c2n[nH]cc2-c2ccc3ncc(N4CC(C)NC(C)C4)cc3n2)n1 (centres unmarked) [Compound 28, 7-(3,5-dimethylpiperazin-1-yl)-2-[3-(6-methyl-2-pyridyl)-1H-pyrazol-4-yl]-1,5-naphthyridine] | 25.1 to 158 nM |
| < 0.0316 nM | Cc1cccc(-c2n[nH]cc2-c2ccc3ncc(N4CCC(N)C4)cc3n2)n1 (centres unmarked) [Compound 626, 1-[6-[3-(6-methyl-2-pyridyl)-1H-pyrazol-4-yl]-1,5-naphthyridin-3-yl]pyrrolidin-3-amine] | 25.1 to 158 nM |
| 0.398 to 3.16 nM | Cc1cccc(-c2n[nH]cc2-c2ccc3ncc(-c4c(C)noc4C)cc3n2)n1 [Compound 243, 3,5-dimethyl-4-[6-[3-(6-methyl-2-pyridyl)-1H-pyrazol-4-yl]-1,5-naphthyridin-3-yl]isoxazole] | 25.1 to 158 nM |
| < 0.0316 nM | Cc1cccc(-c2n[nH]cc2-c2ccc3ncc(N4CCC(N)CC4)cc3n2)n1 [Compound 316, 1-[6-[3-(6-methyl-2-pyridyl)-1H-pyrazol-4-yl]-1,5-naphthyridin-3-yl]piperidin-4-amine] | 25.1 to 158 nM |
